Reference: patent publication US5854204A, “Aβ peptides that modulate β-amyloid aggregation” (priority 1996, dated 1998)
Numbered stars: 1 amine (or outer) side, 2 acyl side, 3 side chain; on linkers, the order of the positions; unused ones are H or OH. Square brackets hold non-standard residues; d marks the D form. Peptide text beside a SMILES is read from it. * marks the point of attachment. Cholyl = C[C@H](CCC(=O)*)[C@H]1CC[C@H]2[C@@H]3[C@H](O)C[C@@H]4C[C@H](O)CC[C@]4(C)[C@H]3C[C@H](O)[C@]12C; X2 = O=C(C1(O)C[C@H](O)[C@@H](N[*:1])[C@H]([C@H](O)[C@H](O)CO)O1)[*:2]; Tyr(3-I) = N[C@@H](Cc1ccc(O)c(I)c1)C(=O)O; βAla = NCCC(=O)O

Legend:
Aβ1-40 [1] = target: T1, Aβ1-40 (Homo sapiens, UniProt P05067); assay: biochemical; conditions: read-out: % Inucl'n (percent reduction in maximum turbidity)
T1 sequence (P05067 672-711): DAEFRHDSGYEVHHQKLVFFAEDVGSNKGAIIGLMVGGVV
Description: (§1) The nucleation assay is employed to determine the ability of test compounds to alter (e.g. inhibit) the early events in formation of β-AP fibers from monomeric β-AP. […] The time delay before polymerization of β-AP monomer can be quantified as well as the extent of formation of insoluble fiber by light scattering (turbidity). Polymerization reaches equilibrium when the maximum turbidity reaches a plateau. […] The threshold of sensitivity for the measurement of turbidity is in the range of 15-20 μM β-AP. […] This assay can be performed using stirring or shaking to accelerate polymerization, thereby increasing the speed of the assay. Moreover the assay can be adapted to a 96-well plate format to screen multiple compounds.
(§2) HFIP-solubilized peptide is sonicated in a waterbath sonicator for 5 min at highest setting, then evaporated to dryness under a stream of argon. […] Test compounds are dissolved in DMSO at a 100× concentration. […] Ten microliters of the mixture is then added to the bottom of a well of a Corning Costar ultra low binding 96-well plate (Corning Costar, Cambridge Mass.; cat. No. 2500). […] The plate is then returned to the shaker and shaken continuously for 5 hours. Turbidity readings are taken at 15 minute intervals.
(§3) Accordingly a fold increase in lag time of 1.0 indicates no change in lag time, whereas numbers >1.0 indicate an increase in lag time. The "% inhibition of plateau", which is a measure of the ability of the compound to decrease the total amount of aggregation, refers to the reduction of the final turbidity in the presence of the test compound expressed as a percent of the control without the test compound.

Aβ1-40 [2] = target: T1, Aβ1-40; assay: Seeded extension assay (thioflavin T fluorescence); format: biochemical; set-up: Natural β-AP (β-AP1-40) was obtained commercially from Bachem (Torrance, Calif.); purchased Bachem (Torrance, Calif.); conditions: Table V; 25 mole % inhibitor
Experimental: The seeded extension assay can be employed to measure the rate of Aβ fiber formed in a solution of Aβ monomer following addition of polymeric Aβ fiber "seed". The ability of test compounds to prevent further deposition of monomeric Aβ to previously deposited amyloid is determined using a direct indicator of β-sheet formation using fluorescence. In contrast with the nucleation assay, the addition of seed provides immediate nucleation and continued growth of preformed fibrils without the need for continuous mixing, and thus results in the absence of a lag time before polymerization starts. Since this assay uses static polymerization conditions, the activity of positive compounds in the nucleation assay can be confirmed in this second assay under different conditions and with an additional probe of amyloid structure.
Samples of the solution are then diluted in thioflavin T (Th-T). The polymer-specific association of Th-T with Aβ produces a fluorescent complex that allows the measurement of the extent of fibril formation (Levine, H. (1993) Protein Science 2:404-410). In particular, association of Th-T with aggregated β-AP, but not monomeric or loosely associated β-AP, gives rise to a new excitation (ex) maximum at 450 nm and an enhanced emission (em) at 482 nm, compared to the 385 nm (ex) and 445 nm (em) for the free dye. Small aliquots of the polymerization mixture contain sufficient fibril to be mixed with Th-T to allow the monitoring of the reaction mixture by repeated sampling. A linear growth curve is observed in the presence of excess monomer. The formation of thioflavin T responsive β-sheet fibrils parallels the increase in turbidity observed using the nucleation assay.
To prepare the stock seed, 1 ml of the Aβ monomer preparation, is incubated for approximately 8 days at 37° C. and sheared sequentially through an 18, 23, 26 and 30 gauge needle 25, 25, 50, and 100 times respectively. 2 μl samples of the sheared material is taken for fluorescence measurements after every 50 passes through the 30 gauge needle until the fluorescence units (FU) plateau (approx. 100-150×). Test compounds are prepared by dissolving an appropriate amount of test compound in 1× PBS to a final concentration of 1 mM (10× stock). If insoluble, the compound is dissolved in 1/10 volume of DMSO and diluted in 1× PBS to 1 mM. A further 1/10 dilution is also prepared to test each candidate at both 100 μM and 10 μM.
To perform the seeded extension assay, each sample is set up with 50 μl of 200 μM monomer, 125 FU sheared seed (a variable quantity dependent on the batch of seed, routinely 3-6 μl) and 10 μl of 10× modulator solution. The sample volume is then adjusted to a final volume of 100 μl with 1× PBS. Two concentrations of each modulator typically are tested: 100 μM and 10 μM, equivalent to a 1:1 and a 1:10 molar ratio of monomer to modulator. The controls include an unseeded reaction to confirm that the fresh monomer contains no seed, and a seeded reaction in the absence of any modulators, as a reference to compare against candidate modulators. The assay is incubated at 37° C. for 6 h, taking 2 μl samples hourly for fluorescence measurements. To measure fluorescence, a 2 μl sample of Aβ is added to 400 μl of Thioflavin-T solution (50 mM Potassium Phosphate […] pH 7.5). The samples are vortexed and the fluorescence is read in a 0.5 ml micro quartz cuvette at EX 450 nm and EM 482 nm (Hitachi 4500 Fluorimeter).
The modulators were evaluated in the nucleation and seeded extension assays described in Example 6 and the results are summarized below in Table V. The change in lag time (ΔLag) is presented as the ratio of the lag time observed in the presence of the test compound to the lag time of the control. […] Inhibition (% Inucl'n) is listed as the percent reduction in the maximum observed turbidity in the control at the end of the assay time period. […]

Aβ1-40 [3] = target: T1, Aβ1-40
Description: as §1, §2, §3
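Wherever % Inhibition of Plateau is given: Aβ nucleation assay tracking fiber polymerization from monomer by turbidity (light scattering), shaken continuously in 96-well plates, read every 15 min over 5 h, compared with compound-free control.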

SMILES: CC(C)C[C@H](NC(=O)CC[C@@H](C)[C@H]1CC[C@H]2[C@@H]3[C@H](O)C[C@@H]4C[C@H](O)CC[C@]4(C)[C@H]3C[C@H](O)[C@]12C)C(=O)N[C@H](C(=O)N[C@@H](Cc1ccccc1)C(=O)N[C@@H](Cc1ccccc1)C(=O)N[C@@H](C)C(=O)N[C@@H](CCC(=O)O)C(=O)O)C(C)C [PPI-379] (Cholyl-LVFFAE-OH)
- inhibition at 100 % (Aβ1-40 [1]): 55%
- % Iext'n (percent reduction of thioflavin-T fluorescence) (Aβ1-40 [2]): 16%

SMILES: CC(C)C[C@H](NC(=O)[C@H](CCCCN)NC(=O)CC[C@@H](C)[C@H]1CC[C@H]2[C@@H]3[C@H](O)C[C@@H]4C[C@H](O)CC[C@]4(C)[C@H]3C[C@H](O)[C@]12C)C(=O)N[C@H](C(=O)N[C@@H](Cc1ccccc1)C(=O)N[C@@H](Cc1ccccc1)C(=O)NCCC(=O)O)C(C)C [PPI-371] (Cholyl-KLVFF[βAla]-OH)
- inhibition at 100 % (Aβ1-40 [1]): 76%
- % Iext'n (percent reduction of thioflavin-T fluorescence) (Aβ1-40 [2]): 80%

SMILES: CC(C)C[C@H](NC(=O)[C@H](CCCCN)NC(=O)CCCC[C@@H]1SC[C@@H]2NC(=N)N[C@@H]21)C(=O)N[C@H](C(=O)N[C@@H](Cc1ccccc1)C(=O)N[C@@H](Cc1ccccc1)C(=O)O)C(C)C [PPI-374, iminobiotinyl-Aβ16-20]
- % Inhibition of Plateau (Aβ1-40 [3]): 86%
- % Iext'n (percent reduction of thioflavin-T fluorescence) (Aβ1-40 [2]): 0%

SMILES: CC(C)C[C@H](NC(=O)[C@H](CCCCN)NC(=O)[C@H](CCC(N)=O)NC(=O)CC[C@@H](C)[C@H]1CC[C@H]2[C@@H]3[C@H](O)C[C@@H]4C[C@H](O)CC[C@]4(C)[C@H]3C[C@H](O)[C@]12C)C(=O)N[C@H](C(=O)N[C@@H](Cc1ccccc1)C(=O)N[C@@H](Cc1ccccc1)C(=O)O)C(C)C [PPI-349, cholyl-Aβ15-20]
- inhibition at 100 % (Aβ1-40 [1]): 100%
- % Iext'n (percent reduction of thioflavin-T fluorescence) (Aβ1-40 [2]): 56%

SMILES: CC(C)C[C@H](NC(=O)CC[C@@H](C)[C@H]1CC[C@H]2[C@@H]3[C@H](O)C[C@@H]4C[C@H](O)CC[C@]4(C)[C@H]3C[C@H](O)[C@]12C)C(=O)N[C@H](C(=O)N[C@@H](Cc1ccccc1)C(=O)N[C@@H](Cc1ccccc1)C(=O)N[C@@H](CCCCN)C(=O)O)C(C)C [PPI-407] (Cholyl-LVFFK-OH)
- inhibition at 33 % (Aβ1-40 [1]): 100%
- % Iext'n (percent reduction of thioflavin-T fluorescence) (Aβ1-40 [2]): 85%

SMILES: CC(=O)N[C@H]1[C@H]([C@H](O)[C@H](O)CO)OC(O)(C(=O)N[C@@H](Cc2c[nH]cn2)C(=O)N[C@@H](CCC(N)=O)C(=O)N[C@@H](CCCCN)C(=O)N[C@@H](CC(C)C)C(=O)N[C@H](C(=O)N[C@@H](Cc2ccccc2)C(=O)N[C@@H](Cc2ccccc2)C(N)=O)C(C)C)C[C@@H]1O (some centres unmarked) [PPI-316] (Ac-[X2]HQKLVFF-NH2)
- inhibition at 100 % (Aβ1-40 [1]): -15%

SMILES: CC(C)C[C@H](NC(=O)[C@H](CCCCN)NC(=O)CC[C@@H](C)[C@H]1CC[C@H]2[C@@H]3[C@H](O)C[C@@H]4C[C@H](O)CC[C@]4(C)[C@H]3C[C@H](O)[C@]12C)C(=O)N[C@H](C(=O)N[C@@H](Cc1ccccc1)C(=O)N[C@@H](Cc1ccccc1)C(=O)O)[C@@H](C)O [PPI-369] (Cholyl-KLTFF-OH)
- % Inhibition of Plateau (Aβ1-40 [3]): ~ 0%
- % Iext'n (percent reduction of thioflavin-T fluorescence) (Aβ1-40 [2]): 44%

SMILES: CC(C)C[C@H](NC(=O)[C@H](CCCCN)NC(=O)[C@H](CCC(N)=O)NC(=O)[C@H](Cc1c[nH]cn1)NC(=O)CC[C@@H](C)[C@H]1CC[C@H]2[C@@H]3[C@H](O)C[C@@H]4C[C@H](O)CC[C@]4(C)[C@H]3C[C@H](O)[C@]12C)C(=O)N[C@H](C(=O)N[C@@H](Cc1ccccc1)C(=O)N[C@@H](Cc1ccccc1)C(=O)O)C(C)C [PPI-348] (Cholyl-HQKLVFF-OH)
- % Inhibition of Plateau (Aβ1-40 [3]): 49%
- inhibition at 33 % (Aβ1-40 [1]): 70%

SMILES: COC(=O)[C@H](C)NC(=O)[C@H](Cc1ccccc1)NC(=O)[C@H](Cc1ccccc1)NC(=O)[C@@H](NC(=O)[C@H](CC(C)C)NC(=O)CC[C@@H](C)[C@H]1CC[C@H]2[C@@H]3[C@H](O)C[C@@H]4C[C@H](O)CC[C@]4(C)[C@H]3C[C@H](O)[C@]12C)C(C)C [PPI-401]
- % Iext'n (percent reduction of thioflavin-T fluorescence) (Aβ1-40 [2]): 0%

SMILES: CC(C)C[C@H](NC(=O)CC[C@@H](C)[C@H]1CC[C@H]2[C@@H]3[C@H](O)C[C@@H]4C[C@H](O)CC[C@]4(C)[C@H]3C[C@H](O)[C@]12C)C(=O)N[C@H](C(=O)N[C@@H](Cc1ccccc1)C(=O)N[C@@H](Cc1ccccc1)C(=O)N[C@@H](C)C(N)=O)C(C)C [PPI-382]
- inhibition at 100 % (Aβ1-40 [1]): -200%
- % Iext'n (percent reduction of thioflavin-T fluorescence) (Aβ1-40 [2]): 91%

SMILES: CC(C)C[C@@H](NC(=O)CC[C@@H](C)[C@H]1CC[C@H]2[C@@H]3[C@H](O)C[C@@H]4C[C@H](O)CC[C@]4(C)[C@H]3C[C@H](O)[C@]12C)C(=O)N[C@@H](C(=O)N[C@H](Cc1ccccc1)C(=O)N[C@H](Cc1ccccc1)C(=O)N[C@H](C)C(=O)O)C(C)C [PPI-433]
- inhibition at 100 % (Aβ1-40 [1]): 27%

SMILES: CC(C)C[C@H](NC(=O)CC[C@@H](C)[C@H]1CC[C@H]2[C@@H]3[C@H](O)C[C@@H]4C[C@H](O)CC[C@]4(C)[C@H]3C[C@H](O)[C@]12C)C(=O)N[C@H](C(=O)N[C@@H](Cc1ccccc1)C(=O)N[C@@H](Cc1ccc(O)c(I)c1)C(=O)N[C@@H](C)C(=O)O)C(C)C [PPI-397] (Cholyl-LVF[Tyr(3-I)]A-OH)
- inhibition at 100 % (Aβ1-40 [1]): 95%

SMILES: C[C@H](CCC(=O)NCC(=O)N[C@@H](Cc1ccccc1)C(=O)N[C@@H](Cc1ccccc1)C(=O)O)[C@H]1CC[C@H]2[C@@H]3[C@H](O)C[C@@H]4C[C@H](O)CC[C@]4(C)[C@H]3C[C@H](O)[C@]12C [PPI-438]
- inhibition at 100 % (Aβ1-40 [1]): 0%

SMILES: CC(C)C[C@H](NC(=O)[C@H](CCCCN)NC(=O)CC[C@@H](C)[C@H]1CC[C@H]2[C@@H]3[C@H](O)C[C@@H]4C[C@H](O)CC[C@]4(C)[C@H]3C[C@H](O)[C@]12C)C(=O)N[C@H](C(=O)N[C@@H](Cc1ccccc1)C(=O)N[C@@H](Cc1ccccc1)C(=O)O)C(C)C [PPI-350, cholyl-Aβ16-20]
- % Iext'n (percent reduction of thioflavin-T fluorescence) (Aβ1-40 [2]): 11%

SMILES: CC(C)C[C@H](NC(=O)[C@H](CCCCN)NC(=O)CC[C@@H](C)[C@H]1CC[C@H]2[C@@H]3[C@H](O)C[C@@H]4C[C@H](O)CC[C@]4(C)[C@H]3C[C@H](O)[C@]12C)C(=O)N[C@H](C(=O)N[C@@H](C)C(=O)N[C@@H](Cc1ccccc1)C(=O)O)C(C)C [PPI-370, cholyl-Aβ16-20 Phe19- >Ala] (Cholyl-KLVAF-OH)
- % Inhibition of Plateau (Aβ1-40 [3]): 73%
- % Iext'n (percent reduction of thioflavin-T fluorescence) (Aβ1-40 [2]): 31%

SMILES: CC(C)C[C@H](NC(=O)CC[C@@H](C)[C@H]1CC[C@H]2[C@@H]3[C@H](O)C[C@@H]4C[C@H](O)CC[C@]4(C)[C@H]3C[C@H](O)[C@]12C)C(=O)N[C@H](C(=O)N[C@@H](Cc1ccccc1)C(=O)N[C@@H](C)C(=O)N[C@@H](C)C(=O)O)C(C)C [PPI-391] (Cholyl-LVFAA-OH)
- inhibition at 100 % (Aβ1-40 [1]): 40%

SMILES: CC(C)[C@H](NC(=O)[C@H](C)NC(=O)CC[C@@H](C)[C@H]1CC[C@H]2[C@@H]3[C@H](O)C[C@@H]4C[C@H](O)CC[C@]4(C)[C@H]3C[C@H](O)[C@]12C)C(=O)N[C@@H](C)C(=O)N[C@@H](Cc1ccccc1)C(=O)N[C@@H](C)C(=O)O [PPI-400] (Cholyl-AVAFA-OH)
- inhibition at 100 % (Aβ1-40 [1]): -15%

SMILES: C[C@H](CCC(=O)O)[C@H]1CC[C@H]2[C@@H]3[C@H](O)C[C@@H]4C[C@H](O)CC[C@]4(C)[C@H]3C[C@H](O)[C@]12C [PPI-293, Cholic acid, reference compound]
- inhibitory activity on Aβ aggregation (Aβ1-40 [3]): had no effect on Aβ aggregation
- inhibition at 100 % (Aβ1-40 [1]): 0%

SMILES: CC(C)C[C@H](NC(=O)CC[C@@H](C)[C@H]1CC[C@H]2[C@@H]3[C@H](O)C[C@@H]4C[C@H](O)CC[C@]4(C)[C@H]3C[C@H](O)[C@]12C)C(=O)N[C@H](C(=O)N[C@@H](Cc1ccc(O)c(I)c1)C(=O)N[C@@H](Cc1ccccc1)C(=O)N[C@@H](C)C(=O)O)C(C)C [PPI-396] (Cholyl-LV[Tyr(3-I)]FA-OH)
- inhibition at 100 % (Aβ1-40 [1]): 100%
